Tests used:
[1] = system: HepG2 and SK-Hep1 cells; experiment: LDH release assay; type: cell-based, human; details: 0-4 μM, three days
Protocol: The hepatic carcinoma cells were seeded in 96-well plates and treated with indole analogues for three days. Of note, the compounds were added into DMEM medium supplemented with 1% FBS. The cellular supernatant was collected for LDH release detection by using LDH cytotoxicity assay kit (Beyotime, C0016). Statistical analysis was combined with the cell viability data tested by WST-1 cell proliferation and cytotoxicity assay kit (Beyotime, C0035).

[2] = system: hepatic carcinoma cells; experiment: Cell migration assay (wound scratch, transwell); type: cell-based, human; details: HepG2 and SK-Hep1, 0-4 μM
Protocol: For transwell assay, the hepatic carcinoma cells were seeded in wells and put wells into 24-well plates pre-loaded DMEM medium supplemented with 20% FBS. The wells were added only DMEM medium with Tc3. The cells migrated through the membrane of wells in two days. Next, the wells were fixed by paraformaldehyde, stained by crystal violet and photographed for statistical analysis. For cell scratch assay, the hepatic carcinoma cells were seeded in 6-well plates and treated with Tc3. The scratch lines were obtained before the cell fusion reached almost 100%, and the cells were photographed at time gradient points for statistical analysis.

[3] = system: PLC-PRF5 cells; experiment: Anti-tumor activity assay (IC50 value), cells counted after three days; type: cell-based; details: Homo sapiens, PLC-PRF-5, 72 h
Text: (§1) The cells were counted with hemocytometer.

[4] = system: SK-Hep1 cells; experiment: as above; details: Homo sapiens, SK-HEP1, 72 h, read-out: IC50 SK-Hep1
Protocol: (§2) For half maximal inhibitory concentrations (IC50) analysis, the hepatic carcinoma cells (HepG2, SK-Hep1 and PLC-PRF5) were seeded in 24-well plates respectively, then treated with drugs at concentration gradient for three days. The cells were counted with hemocytometer. […] A is the cell quantity of the control group and B is the cell quantity of the drug treated group. The cell inhibition rate was transformed using its logarithm. And the drug IC50 value were calculated by Graphpad Prsim 9 software with curve fitting of the drug concentration and log (cell inhibition rate).

[5] = system: HepG2 cells; experiment: as above
Protocol: as §2

[6] = system: ROS; experiment: Reactive Oxygen Species detection (DCFH-DA); type: cell-based, human; details: HepG2 cells, 24 h
Protocol: The hepatic carcinoma cells were seeded in 6-well plates and treated with Tc3 for 24 h. The cells were then stained by DCFH-DA (10 μM) for 20 min, washed with PBS buffer for two times, and the fluorescence intensity was captured by a confocal microscope (Leica, TCS SP8).

[7] = system: AML-12 cells; experiment: Dose-response growth inhibition of liver parenchymal cells; type: cell-based; details: AML12; mouse liver parenchymal cells
Text: as §1
(E) Dose-response curves for Tc3 inhibiting the growth of AML-12 cells.

[8] = system: CD8^+ T cells; experiment: Fluorescence staining and flow cytometry of tumor-infiltrating cells; type: in vivo, C57 BL/6N mice; details: Hepa1-6 CDXs, 10 mg/kg
Protocol: The lymphocytes were isolated from the tumors and blocked by purified CD16/32 antibody. Next, the cells were stained with fluorescent-conjugated antibodies (FITC-CD11b, APC-F4/80, PE-CD86, Alexa Flour® 700-CD206, APC-Ly6G, FITC-CD45, APC-CD8a, Pacific Blue^TM-IFN-γ). The fluorescence intensity was measured by a FACS Calibur, and data were analyzed with FlowJo software.
The mice tumor tissues were embedded into the OCT reagent and sliced into 10 μm sections via the freezing microtome. The sections were fixed by paraformaldehyde, blocked by 3% bovine serum albumin (BSA, Beyotime, ST2254), and incubated with the primary antibodies overnight. In the second day, the sections were incubated with the fluorescent‐conjugated antibodies and 4′,6‐diamidino‐2‐phenylindole (DAPI, Solarbio, C0065) for nuclei. The tissue fluorescent images were captured by a confocal microscope (Leica, TCS SP8) and analyzed by imageJ software.

[9] = system: HepG2 cells; experiment: RNA sequencing analysis; type: cell-based, human; details: HepG2, 4 μM, 24h, versus DMSO
Protocol: HepG2 cells were treated with dimethyl sulfoxide (DMSO) or Tc3 (4 μM) for 24h. And the total RNA was isolated using TRIzol (Solarbio, R1100). Next, the samples were processed and the RNA libraries were constructed by APTBIO company (Shanghai, China). Paired-end reads were aligned to a reference genome index which created using HISAT2, with read assignments to each gene quantified with feature counts. Gene expression was quantified using Transcripts Per Million (TPM). We identified Differentially Expressed Genes (DEGs) using the DESeq2 package in R, defining DEGs as those with an absolute log2 fold change greater than 1 and an adjusted p-value less than 0.05. We performed Gene Ontology (GO) and KEGG pathway enrichment analyses using the "cluster Profiler" package in R. GO terms and KEGG pathways with an adjusted P-value less than 0.05 were statistically significant. Our results were visualized using the ggplot2 and fact extra packages in R.

[10] = system: Hepa1-6 CDXs; experiment: Anti-PD-1 antibody synergistic effect in vivo; details: C57 BL/6N mice
Text: Balb/c nude mice (female, 6-week-old) were subcutaneously injected with 2 × 10^6 HepG2 cells on the left and right flanks to construct cell-derived xenografts (CDXs). The patient-derived xenografts (PDXs) samples were gifts from Dr Changliang Shan of Nankai University. C57 BL/6N mice (female, 5-week-old) were subcutaneously injected with 2 × 10^6 Hepa1-6 cells mixed with matrigel (ABW, 0827265) on the left and right flanks. The mice were inoculated with hepatic carcinoma CDXs or PDXs for at least four days, and treated (i.p.) by vehicle and Tc3. […] Tumor volume = 4π/3 × (Length/2) × (Width/2)^2. All animal experiments were carried out in accordance with the recommendations of Requirements of the Ethical Review System of Biomedical Research Involving Human by National Health and Family Planning Commission of China and Nankai University Ethics Committee with written informed consent complying with the Declaration of Helsinki (IAEC ID: 2023-STDWLL-000249).
The CDI value of tumor weight was calculated using formula mentioned before.

[11] = system: AML-12 cells; experiment: Flow cytometry of propidium iodide and annexin V-FITC staining; type: cell-based, mouse
Text: Figure 2 Cytotoxic effect of Tc3 on human hepatic carcinoma cells in vitro. […] (B-C) Cell viability rates of HepG2 (B) and SK-Hep1 (C) cells treated with Tb7, Tc1, Tc3, Tc4 and other clinical chemotherapy drugs. (D-F) Flow cytometry of propidium iodide and annexin V-fluorescein isothiocyanate (FITC)-stained HepG2 cells (D). Statistical analysis of the early apoptotic cells (E) and late apoptotic cells (F). (G-I) Flow cytometry of propidium iodide and annexin V-fluorescein isothiocyanate (FITC)-stained AML-12 cells (G). Statistical analysis of the early apoptotic cells (H) and late apoptotic cells (I). Data are presented as mean ± SD of three independent biological experiments. *p < 0.05, **p < 0.01, ***p < 0.001 and ****p < 0.0001, ns, no significant.
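For fold increase in cellular potency in this document: HepG2 cells exposed to a drug concentration series for 3 days, then counted with a hemocytometer, inhibition relative to untreated control cell number, IC50 obtained by curve fitting.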

**Q.** With `CC(C)[C@H](N)C(=O)NCCCn1cc(/C=C2\S/C(=N\c3ccc(N4CCOCC4)cc3)N(Cc3ccc(F)cc3)C2=O)c2ccccc21` [Tc3] as the compound, how does the LDH release levels [1] read?
**A.** highest LDH release

**Q.** What about the “cell migration rates (wound scratch, transwell)” value [2] of the same compound?
**A.** reduced cell migration rates

**Q.** And the IC50 [3]?
**A.** 1.79 µM

**Q.** What about the IC50 [4] of the same compound?
**A.** 1.64 µM

**Q.** And the “fold increase in cellular potency” value ([5]; HepG2, compared to T1)?
**A.** ~12 fold

**Q.** And the IC50 ([5]; Homo sapiens, HepG2, 72 h, read-out: IC50 HepG2)?
**A.** 1.37 µM

**Q.** What about the “intracellular ROS (DCFH-DA probes)” value [6] of the same compound?
**A.** observably up-regulated

**Q.** And the IC50 [7]?
**A.** 6.14 µM

**Q.** And the “infiltration of activated CD8^+ T cells in tumors” value [8]?
**A.** significantly promoted

**Q.** What about the “Number of down-regulated gene” value [9] of the same compound?
**A.** 38

**Q.** What about the “Number of up-regulated gene” value [9] of the same compound?
**A.** 182

**Q.** And the “number of DEGs” value [9]?
**A.** 220

**Q.** What about the “damage to liver, spleen, kidney and small intestine (pathology)” value ([10]; 10 mg/kg) of the same compound?
**A.** did not cause significant damage

**Q.** What about the “tumor growth of Hepa1-6 CDXs compared to control groups” value ([10]; i.p., Tc3 10 mg/kg, anti-PD-1 10 mg/kg) of the same compound?
**A.** significantly inhibited tumor growth

**Q.** What about the “cell death by annexin V / propidium iodide flow cytometry” value [11] of the same compound?
**A.** not observed
